Holding throughout (format): cell-based, human
In assay [1] the test system is IPF HBECs. Nature of the assay: Induction of the unjammed-to-jammed transition (UJT) in IPF HBECs. As to conditions: day 14 IPF HBECs. The text has this: (§1) Epithelial Cell Culture: Primary human bronchial epithelial cells (HBECs) were obtained from two sources (1) provided by Dr. Hong Wei Chu at National Jewish Health, or (2) lung transplant collection at the University of Colorado Hospital (IRB protocol: 11-1664 or 18-0572). Epithelial cells from bronchial brushes or CT-guided dissection were expanded to passage 2 before being cultured at air liquid interface (ALI). Control (N=11), IPF (N=6), and COPD (N=3) were age matched and controls had no history of chronic lung disease (Table 1). Cells were seeded on 24-Transwell plates (Corning, Corning, New York, 3470) coated with type I collagen (Corning, Corning, New York, 354236) and maintained under submerged conditions for five to seven days until the cells reached confluence. Culture media was a 1:1 mixture of DMEM and BEBM (Lonza, Basel, Switzerland, CC170) supplemented with retinoic acid (Sigma-Aldrich, Germany, R-2625) nystatin (Sigma-Aldrich, Germany N1638), and bovine serum albumin (FisherSci, Thermo Fisher Scientific, Waltham, Massachusetts BP9703100). Once confluent, apical media was removed and maintained at ALI. HBECs began recapitulating the in vivo airway, with production of mucus (6-9 days after establishing ALI) and development of a pseudostratified epithelium. Cells were switched to a starvation media (lacking supplemental epidermal growth factor, hydrocortisone, and bovine pituitary extract) 24 hours prior to experimentation.
(§2) For inhibitor, activator, and ligand treatments HBECs were cultured in a starvation media in the absence of EGF, hydrocortisone, and bovine pituitary extract for 24 hours prior to treatment initiation. Cells were then treated for 2-4 hours (with exception of AREG neutralizing antibody which was maintained in the culture media), media was aspirated, the wells were washed with warm PBS and then replaced with fresh starvation media without inhibitor/activator/ligand present, and subsequently imaged. For experiments that required subsequent media changes (96 hour) cells fresh starvation media was changed 48 hours afterwards.
(§3) Live Cell Imaging and Dynamics Measurement: To assess cellular dynamics, time-lapse microscopy and subsequent analysis were completed. Two imaging schemes were utilized: (1) images were taken every 5 minutes for 200 minutes during HBEC differentiation; (2) images were taken every 20 minutes for 48, 96, or 144 hours after HBEC experimental intervention. Phase contrast images were acquired on a Keyence BZ-X810 with a stage incubator (37° C., 5% CO2). Dynamic analysis followed previously published workflows (10-12, 22). Briefly, using phase contrast images instantaneous velocities were mapped by particle image velocimetry utilizing open source PIVLab on MATLAB. Velocity fields were obtained with 2 passes (64×64 and 32×32 pixel size interrogation window with 50% overlap) with a pixel size of 0.75488 μm using a Fast Fourier Transformation method. Trajectories from the PIV were seeded onto a grid and obtained via forward-integration of subsequent fields. These values were then used to determine mean-squared-displacement (MSD) and self-overlap order parameter (Q): MSD(Δt)= ? ri(t+Δt)−ri(t)|2 ? and Q(Δt)=N−1ΣwiNi=1 as previously published. Instantaneous room mean squared velocity (VRMS) of the monolayer was obtained as previously published: VRMS(t)=√1MΣ ? |v(t)2 ? jMj=1
Cell Shape Analysis: Cell shape measurements were achieved via cell border delineation by F-actin immunofluorescence. Images were segmented utilizing SeedWater Segmenter. Similar to previously published workflows, we segmented images which were subsequently analyzed in ImageJ for the shape index (q=Perimeter√Area) and aspect ratio (major and minor axis) for all cells within a given field of view. For each experimental condition an n≥3 was used with at least 3 independent wells per donor per treatment condition. […]

In assay [2] the test system is IPF HBECs. Put plainly: Gene expression of ERBB receptors, YAP target genes and MUC5B in IPF HBECs. As to conditions: IPF HBECs after inhibition. Here is the method:
Quantitative RT-PCR Analysis: Total RNA was extracted using RNeasy® Mini kit (Qiagen, Hilden, Germany) and quantified by NanoDrop™ (ThermoFisher Scientific™, Waltham, Massachusetts).Reverse transcription was completed using the High Capacity cDNA Reverse Transcription Kit (Applied Biosystems™, Thermo Fisher Scientific™, Waltham, Massachusetts). Gene expression was analyzed by using TaqMan® Advanced Master Mix (Thermo Fisher Scientific™, Waltham, Massachusetts and TaqMan® assays. They were subsequently run in triplicate on the ViiA™ 7 Real-Time machine (Thermo Fisher Scientific™, Waltham, Massachusetts). Primer IDs were: β-ACTIN, Hs01060665_g1; MUC5B, Hs00861595_m1; MUC5AC, Hs01365616_m1; EGFR, Hs0176090_m1; ERBB2, Hs01001580_m1; ZEB1, Hs00232783_m1; SNAI1, Hs00195591_m1; VIM, Hs00185584_m1; CTGF, Hs00170014_m1; AREG, Hs00950669_m1; FN1, Hs01549976_m1; PDGFRA, Hs00998018_m1; PDGFA, Hs00234994_m1; PDGFRB, Hs01019589_m1; PDGFB, Hs00966522_m1; TGFBRI, Hs00610320_m1; TGFBI, Hs00998133_m1; COL1A1, Hs00164004_m1; ACTA2, Hs00426835; MMP3, Hs00968305_m1; MMP9, Hs00957562_m1; TIMP1, Hs01092512_g1; and TIMP2, Hs00234278_m1.

Assay [3] concerns IPF HBECs. Nature of the assay: YAP immunofluorescence in IPF HBECs. As to conditions: IPF HBECs 48 hours after treatment. The method, then:
Immunofluorescence staining: Cells were fixed with 4% paraformaldehyde in PBS with calcium and magnesium for 30 minutes at room temperature. Cells were then washed with PBS and subsequently permeabilized (Triton™-X, at 0.1%) and blocked with 5% bovine serum albumin in PBS for 1 hour at room temperature. Cells were then incubated for >16 hours at 4 degrees with primary antibodies. Primary antibodies were aspirated, and cells were washed with PBS+0.1% Tween-20 at room temperature. Cells were then incubated for 1 hour at room temperature with secondary antibodies (1:500) and/or Phalloidin-iFluor™ 488 1:2000. Cells were stained with 4′,6-diamidino-2-phenylindole at 1:20000 (BioLegend®, San Diego, California, 422801). Subsequently, transwell membranes, or hydrogels, were removed from the well and mounted on glass slides with Fluoromount-G® (SouthernBiotech™, Birmingham, Alabama, 0100-01). Slides were then visualized using an Olympus BX63 microscope (Olympus, Tokyo, Japan).
Immunofluorescence and cell number quantification for HBEC experiments: For total fluorescence quantification (i.e., ERBB2), all images were processed in the same manner with the same microscopy settings. To determine mean fluorescence the channel of interest was separated in ImageJ, and the mean gray value was measured for the field of view and normalized by the total number of cells. Cell counting was achieved by taking 40×images and manually counting all nuclei in a field of view (approximately 200-300). The number of cells also expressing the marker of interested were then counted and normalized by the total number of cells per field. For each experiment a biological n≥3 was used with at least 5 fields of view per well and at least 2 wells being counted in total per donor.

The test system of another assay is COPD HBECs. Nature of the assay: Induction of jamming in COPD HBECs.
Text: as §1
as §2, with “afterwards. […]” for “afterwards.”

The test system of assay [4] is proximal, jammed cultures. Nature of the assay: IL-6 family cytokine induced unjamming of proximal airway epithelial cultures. As to conditions: proximal cultures pre-treated, then stimulated with IL-6 family cytokines. The method, then: as §3, with “These values were then used to determine mean-squared-displacement (MSD) and self-overlap order parameter (Q): MSD(Δt)= ? ri(t+Δt)−ri(t)|2 ? and Q(Δt)=N−1ΣwiNi=1 as previously published. Instantaneous room mean squared velocity (VRMS) of the monolayer was obtained as previously published: VRMS(t)=√1MΣ ? |v(t)2 ? jMj=1” left out
Cell Shape Analysis: Cell shape measurements were achieved via cell border delineation by F-actin immunofluorescence. […] Similar to previously published workflows, we segmented images which were subsequently analyzed in ImageJ for the shape index (q=Perimeter√Area) and aspect ratio (major and minor axis) for all cells within a given field of view. […]

“Also recorded” adds a separate entry of the source.

As to Verteporfin, in the assay with IPF HBECs [1], the “induction of the UJT (jamming) in IPF epithelia” value is “halted migration and induced a cobblestone appearance in the epithelia”. Besides, in the assay on IPF HBECs [2], the “transcription of ERBB receptors, YAP target genes and MUC5B” value is “reduced the transcription of ERBB receptors, YAP target genes, and MUC5B nearly back to control levels; also recorded: decreases 738 ERBB-YAP target gene expression”. Further, the YAP nuclear exclusion result with IPF HBECs [3] was “results in YAP nuclear exclusion”. The “induction of jamming in COPD epithelia” value in the assay on COPD HBECs is reported as “not responsive to ERBB-YAP inhibition”. Besides, the “effect of inhibitor pre-treatment on IL-6 family cytokine induced unjamming” value in assay [4] was “SRC and YAP were essential for the acquisition of this fluid-like phenotype”.

For the origin of these results see patent US11933781B2, “Fibrosis model and methods of use thereof” (The Regents of the University of Colorado, priority 2020, dated 2024).
